According to ChEMBL document CHEMBL5579899, “Discovery and In Vivo Exploration of 1,3,4-Oxadiazole and α-Fluoroacrylate Containing IL-17 Inhibitors” (J Med Chem, 2024):
In brackets after ≈: the same amount, converted by molar mass.

Columns and labels:
[1] = Lipophilicity, logD of compound at pH 7.4; type: physicochemical; conditions: buffer
[2] = Inhibition of biotinylated human IL-17A/AF647-labeled human IL-17RA protein-protein interaction preincubated for 30 mins with compound followed by addition of AF647-labeled human IL-17RA incubated for 90 min by TR-FRET assay
[3] = Oral bioavailability in Sprague-Dawley rat at 3 mg/kg measured upto 24 hrs by LC-MS/MS analysis; type: ADME, organism-based; conditions: in vivo; for bioavailability: Sprague-Dawley; for F: po, 3 mg/kg, 24 h
[4] = Metabolic stability in rat liver microsomes assessed as intrinsic clearance; type: ADME, Microsome; conditions: read-out: CLH
[5] = Plasma clearance in Sprague-Dawley rat at 1 mg/kg,iv measured upto 24 hrs by LC-MS/MS analysis; type: ADME, organism-based
[6] = Apparent permeability coefficient of the compound across apical to basolateral side in dog MDCK cells by high-throughput analysis; type: ADME, cell-based, Canis lupus familiaris
[7] = Inhibition of IL-6 production in IL-17/TNF-alpha stimulated human NHDF cells incubated for 24 hrs by ELISA; type: functional, cell-based; conditions: 24 h
[8] = Equilibrium solubility of compound […] at pH 6.8 by high-throughput analysis; type: physicochemical
[9] = AUC in Sprague-Dawley rat at 3 mg/kg,po measured upto 24 hrs by LC-MS/MS analysis; type: ADME, organism-based; conditions: in vivo; for AUC at 24 h: Sprague-Dawley; for AUC: po, 3 mg/kg, 24 h
[10] = Metabolic stability in human liver microsomes assessed as intrinsic clearance; type: ADME, Microsome; conditions: read-out: CLH
Rattus norvegicus = assay: Antiarthritic activity in antigen-induced arthritis Lewis rat model assessed as reduction in knee swelling at 10 mg/kg,po bid administrated for 4 days; type: functional; parameters: scale not given: the % may be the effect or the level left; conditions: time 4 day
[11] = Hepatotoxicity in dog assessed as increase in serum liver enzyme at 50 mg/kg administration measured after 3 days; type: toxicity, organism-based, Canis lupus familiaris; conditions: in vivo, 72 h, time 3 day

In the case of COC[C@H](c1cnn2cc([C@@H](NC(=O)c3nonc3C)C3CCC(F)(F)CC3)nc2c1)N1C[C@@H](C(F)(F)F)NC1=O [LY-3509754], the logD [1] is reported as 3.1, the IC50 [2] is reported as 10 nM and the bioavailability [3] is reported as 119%. The microsomal CLint [4] was 20 µL/min/mg, the clearance [5] was 24 mL/min/kg and the Papp A→B [6] was 11 ×10⁻⁶ cm/s. The IC50 [7] was 4 nM, the solubility [8] was 380 µM (≈ 223 µg/mL) and the AUC at 24 h [9] was 5.43 µM·h. For the same molecule, the microsomal CLint [10] was 32 µL/min/mg.

Molecule COC[C@H](c1cnn2cc([C@@H](Nc3nnc(C(C)(F)F)o3)C3CCC(F)(F)CC3)nc2c1)N1C[C@@H](C(F)(F)F)NC1=O has a logD [1] of 3, an IC50 [2] of 38 nM and an F [3] of 41%. For the same molecule, the microsomal CLint [4] was 18 µL/min/mg, the Papp A→B [6] was 3.6 ×10⁻⁶ cm/s and the IC50 [7] was 8 nM. It also gave an Activity (Rattus norvegicus) of 64%, a solubility [8] of 400 µM (≈ 243 µg/mL) and an AUC [9] of 0.946 µM·h. The microsomal CLint [10] was 37 µL/min/mg.

Molecule COC[C@H](c1cnn2cc([C@@H](NC(=O)/C(F)=C\C3(F)CC3)C3CCC(F)(F)CC3)nc2c1)N1C[C@@H](C(F)(F)F)NC1=O has a logD [1] of 2.8, an IC50 [2] of 16 nM and an F [3] of 23%. For the same molecule, the microsomal CLint [4] was 64 µL/min/mg, the Papp A→B [6] was 12 ×10⁻⁶ cm/s and the IC50 [7] was 4 nM. For the same molecule, the solubility [8] was 560 µM (≈ 340 µg/mL), the AUC [9] was 0.013 µM·h and the microsomal CLint [10] was 164 µL/min/mg.

In the case of C/C=C(/F)C(=O)N[C@H](c1cn2ncc([C@@H](COC)N3C[C@@H](C(F)(F)F)NC3=O)cc2n1)C1CCC(F)(F)CC1, the logD [1] is reported as 3, the IC50 [2] is reported as 11 nM and the F [3] is reported as 55%. The microsomal CLint [4] was 240 µL/min/mg, the Papp A→B [6] was 17 ×10⁻⁶ cm/s and the IC50 [7] was 4 nM. The solubility [8] was 600 µM (≈ 338 µg/mL), the AUC [9] was 0.053 µM·h and the microsomal CLint [10] was 159 µL/min/mg.

Molecule COC[C@H](c1cnn2cc([C@@H](Nc3nnc(C)o3)C3CCC(F)(F)CC3)nc2c1)N1C[C@@H](C(F)(F)F)NC1=O has a logD [1] of 1.9, an IC50 [2] of 85 nM and a microsomal CLint [4] of 28 µL/min/mg. The Papp A→B [6] was 0.5 ×10⁻⁶ cm/s, the IC50 [7] was 49 nM and the solubility [8] was > 750 µM. The microsomal CLint [10] was 23 µL/min/mg.

With C=C(F)C(=O)N[C@H](c1cn2ncc([C@@H](COC)N3C[C@@H](C(F)(F)F)NC3=O)cc2n1)C1CCC(F)(F)CC1 the logD [1] was 2.5, the IC50 [2] was 31 nM and the F [3] was 113%. It also gave a microsomal CLint [4] of 33 µL/min/mg, a Papp A→B [6] of 6.5 ×10⁻⁶ cm/s and an IC50 [7] of 27 nM. For the same molecule, the solubility [8] was > 750 µM, the AUC [9] was 0.025 µM·h and the microsomal CLint [10] was 11 µL/min/mg.

In the case of COC[C@H](c1cnn2cc([C@@H](Nc3cc(OC)ncn3)C3CCC(F)(F)CC3)nc2c1)N1C[C@@H](C(F)(F)F)NC1=O, the logD [1] is reported as 3.2, the IC50 [2] is reported as 735 nM and the microsomal CLint [4] is reported as 77 µL/min/mg. It also gave a Papp A→B [6] of 11 ×10⁻⁶ cm/s, an IC50 [7] of 493 nM and a solubility [8] of 700 µM (≈ 409 µg/mL). For the same molecule, the microsomal CLint [10] was 31 µL/min/mg.

For COC[C@H](c1cnn2cc([C@@H](Nc3nnc(C(F)(F)F)o3)C3CCC(F)(F)CC3)nc2c1)N1C[C@@H](C(F)(F)F)NC1=O, the logD [1] was 3.4, the IC50 [2] was 25 nM and the microsomal CLint [4] was < 25 µL/min/mg. It also gave a Papp A→B [6] of 8 ×10⁻⁶ cm/s, an IC50 [7] of 15 nM and a solubility [8] of 270 µM (≈ 165 µg/mL). For the same molecule, the microsomal CLint [10] was < 10 µL/min/mg.

Work on COC[C@H](c1cnn2cc([C@@H](Nc3nnc(C)n3C)C3CCC(F)(F)CC3)nc2c1)N1C[C@@H](C(F)(F)F)NC1=O yielded a logD [1] of 1.5, an IC50 [2] of 1820 nM and a microsomal CLint [4] of 13 µL/min/mg. For the same molecule, the Papp A→B [6] was 0.4 ×10⁻⁶ cm/s, the IC50 [7] was 2690 nM and the solubility [8] was > 750 µM. It also gave a microsomal CLint [10] of 18 µL/min/mg.

COC[C@H](c1cnn2cc([C@@H](Nc3nnc(C)s3)C3CCC(F)(F)CC3)nc2c1)N1C[C@@H](C(F)(F)F)NC1=O showed a logD [1] of 2.5, an IC50 [2] of 61 nM and a microsomal CLint [4] of 75 µL/min/mg. For the same molecule, the Papp A→B [6] was 1.3 ×10⁻⁶ cm/s, the IC50 [7] was 45 nM and the solubility [8] was 610 µM (≈ 350 µg/mL). The microsomal CLint [10] was 50 µL/min/mg.

With COC[C@H](c1cnn2cc([C@@H](Nc3noc(C(C)(F)F)n3)C3CCC(F)(F)CC3)nc2c1)N1C[C@@H](C(F)(F)F)NC1=O the logD [1] was 3.7, the IC50 [2] was 30 nM and the microsomal CLint [4] was 33 µL/min/mg. It also gave a Papp A→B [6] of 20 ×10⁻⁶ cm/s, an IC50 [7] of 27 nM and a solubility [8] of 130 µM (≈ 79.1 µg/mL). It also gave a microsomal CLint [10] of 49 µL/min/mg.

C/C=C(\F)C(=O)N[C@H](c1cn2ncc([C@@H](COC)N3C[C@@H](C(F)(F)F)NC3=O)cc2n1)C1CCC(F)(F)CC1 gave a logD [1] of 3, an IC50 [2] of 19 nM and a microsomal CLint [4] of 166 µL/min/mg. It also gave a Papp A→B [6] of 9.7 ×10⁻⁶ cm/s, an IC50 [7] of 7 nM and a solubility [8] of 700 µM (≈ 394 µg/mL). The microsomal CLint [10] was 90 µL/min/mg.

With COC[C@H](c1cnn2cc([C@@H](Nc3nnc(C4CC4)o3)C3CCC(F)(F)CC3)nc2c1)N1C[C@@H](C(F)(F)F)NC1=O the logD [1] was 2.7, the IC50 [2] was 53 nM and the bioavailability [3] was 2.5%. It also gave a microsomal CLint [4] of 17 µL/min/mg, a clearance [5] of 86 mL/min/kg and a Papp A→B [6] of 1.7 ×10⁻⁶ cm/s. The IC50 [7] was 15 nM, the solubility [8] was > 750 µM and the AUC at 24 h [9] was 0.026 µM·h. The microsomal CLint [10] was < 25 µL/min/mg.

In the case of CC(F)(F)c1nnc(N[C@H](c2cn3ncc([C@@H](C4CC4)N4C[C@@H](C(F)(F)F)NC4=O)cc3n2)C2CCC(F)(F)CC2)o1, the logD [1] is reported as 3.9, the IC50 [2] is reported as 21 nM and the Activity [11] is reported as “Toxic”. It also gave a bioavailability [3] of 41%, a microsomal CLint [4] of 37 µL/min/mg and a clearance [5] of 56 mL/min/kg. It also gave a Papp A→B [6] of 10 ×10⁻⁶ cm/s, an IC50 [7] of 6 nM and an Activity (Rattus norvegicus) of 68%. For the same molecule, the solubility [8] was 45 µM (≈ 27.2 µg/mL), the AUC at 24 h [9] was 0.569 µM·h and the microsomal CLint [10] was 66 µL/min/mg.

Work on COC[C@H](c1cnn2cc([C@@H](Nc3cc(C)on3)C3CCC(F)(F)CC3)nc2c1)N1C[C@@H](C(F)(F)F)NC1=O yielded a logD [1] of 2.9, an IC50 [2] of 62 nM and a microsomal CLint [4] of 156 µL/min/mg. The Papp A→B [6] was 3.3 ×10⁻⁶ cm/s, the IC50 [7] was 75 nM and the solubility [8] was 600 µM (≈ 335 µg/mL). The microsomal CLint [10] was 42 µL/min/mg.

COC[C@H](c1cnn2cc([C@@H](NC(=O)/C(F)=C3\CCOC3)C3CCC(F)(F)CC3)nc2c1)N1C[C@@H](C(F)(F)F)NC1=O showed a logD [1] of 2.6, an IC50 [2] of 102 nM and a bioavailability [3] of 4%. For the same molecule, the microsomal CLint [4] was 321 µL/min/mg, the clearance [5] was 42 mL/min/kg and the Papp A→B [6] was 7.4 ×10⁻⁶ cm/s. For the same molecule, the IC50 [7] was 34 nM, the solubility [8] was > 750 µM and the AUC at 24 h [9] was 0.08 µM·h. It also gave a microsomal CLint [10] of 50 µL/min/mg.

With COC[C@H](c1cnn2cc([C@@H](NC(=O)C(F)=C(C)C)C3CCC(F)(F)CC3)nc2c1)N1C[C@@H](C(F)(F)F)NC1=O the logD [1] was 3.2, the IC50 [2] was 19 nM and the microsomal CLint [4] was > 1000 µL/min/mg. The Papp A→B [6] was 25 ×10⁻⁶ cm/s, the IC50 [7] was 8 nM and the solubility [8] was 340 µM (≈ 196 µg/mL). It also gave a microsomal CLint [10] of 161 µL/min/mg.

Work on COC[C@H](c1cnn2cc([C@@H](Nc3nc(C(C)(F)F)no3)C3CCC(F)(F)CC3)nc2c1)N1C[C@@H](C(F)(F)F)NC1=O yielded a logD [1] of 3.5, an IC50 [2] of 116 nM and a microsomal CLint [4] of 18 µL/min/mg. For the same molecule, the Papp A→B [6] was 9.7 ×10⁻⁶ cm/s, the IC50 [7] was 107 nM and the solubility [8] was 200 µM (≈ 122 µg/mL). For the same molecule, the microsomal CLint [10] was 18 µL/min/mg.

In the case of COC[C@H](c1cnn2cc([C@@H](NC(=O)C(C)(F)F)C3CCC(F)(F)CC3)nc2c1)N1C[C@@H](C(F)(F)F)NC1=O, the logD [1] is reported as 2.5, the IC50 [2] is reported as 85 nM and the microsomal CLint [4] is reported as 26 µL/min/mg. The Papp A→B [6] was 5.5 ×10⁻⁶ cm/s, the IC50 [7] was 74 nM and the solubility [8] was > 750 µM. It also gave a microsomal CLint [10] of 15 µL/min/mg.

For COC[C@H](c1cnn2cc([C@@H](Nc3ncc(C4CC4)o3)C3CCC(F)(F)CC3)nc2c1)N1C[C@@H](C(F)(F)F)NC1=O, the logD [1] was > 4.7, the IC50 [2] was 80 nM and the microsomal CLint [4] was > 1000 µL/min/mg. For the same molecule, the Papp A→B [6] was 17 ×10⁻⁶ cm/s, the IC50 [7] was 64 nM and the solubility [8] was 270 µM (≈ 158 µg/mL). The microsomal CLint [10] was 261 µL/min/mg.
